Patent US9309238B2, “Imidazo [1,2-a]pyridine compounds, synthesis thereof, and methods of using same” (priority 2009, dated 2016)
In brackets after ≈: the same amount, converted by molar mass. Several values for one entry are separate records, joined by “and”; a condition that tells them apart may be missing. Identical values can stand only once. Like-named read-outs stand apart in the source and are kept apart here.

What was measured:
[1] = test system: M. chelonae; assay: NTM activity, M. chelonae; assay type: cell-based
[2] = test system: M. marinum; assay: NTM activity, M. marinum; assay type: cell-based
[3] = test system: M. avium; assay: NTM activity, M. avium; assay type: cell-based
[4] = test system: M. kansasii; assay: NTM activity, M. kansasii; assay type: cell-based
[5] = test system: M. bovis BCG; assay: NTM activity, M. bovis BCG; assay type: cell-based
[6] = test system: H37Rv TB; conditions: current TB clinical candidates; cited from earlier work
[7] = test system: MDR-TB; conditions: current TB clinical candidates; cited from earlier work
[8] = test system: TB; conditions: strain not stated; cited from earlier work
[9] = test system: H37Rv TB; assay: in vitro activity against H37Rv TB (MIC); assay type: cell-based; conditions: Mycobacterium tuberculosis
[10] = test system: MDR-TB; assay: MIC against MDR-TB (Table 1); assay type: cell-based; conditions: Mycobacterium tuberculosis
[11] = test system: VERO cells (African Green Monkey epithelial kidney cells); assay: VERO cellular toxicity assay; assay type: cell-based; conditions: Chlorocebus sabaeus
[12] = test system: HeLa cells; assay: toxicity to HeLa cells; assay type: cell-based
[13] = test system: M. smegmatis; assay: cross screen against M. smegmatis; assay type: cell-based; conditions: Mycolicibacterium smegmatis
[14] = test system: panel of diverse organisms (Gram-positive and Gram-negative strains, yeast, fungi, cancer cell lines, VERO cell line); assay: screen against a panel of diverse control organisms and cell lines; assay type: cell-based; conditions: B. subtilis, S. aureus, MRSA, VRE E. faecalis, E. coli, P. aeruginosa, S. salmonicolor, C. albicans, P. notatum, Huvec, K-562, HeLa, PC-3, MCF-7, VERO
From the text: In embodiments, compounds ND-8448, ND-8451 and ND-8454 were all screened against a panel of diverse organisms which included four Gram-positive strains (Bacillus subtilis, Staphylococcus aureus, MRSA Staphylococcus aureus, VRE Enterococcus Faecalis), two Gram-negative strains (E. coli, Pseudomonas aeruginosa), a yeast (Sporobolomyces salmonicolor) and fungi (Candida albicans and Penicillium notatum), as well as five cancer cell lines (Huvec, K-562, HeLa, PC-3 and MCF-7) and the VERO cell line to check for mammalian toxicity.

[15] = Mycobacterium tuberculosis variant bovis BCG, BCG

Row | SMILES | MIC90 [1] [µM] | MIC90 [2] [µM] | MIC90 [3] [µM] | MIC90 ([4]; M. kansasii) [µM] | MIC90 ([5]; M. bovis BCG) [µM] | other results
1 | CC[C@@H](CO)NCCN[C@@H](CC)CO [EMB, reference compound] | >2000 | 965.56 (≈ 197 µg/mL) | >2000 | <7.813 | <7.813 | 
2 | COc1c(N2CCNC(C)C2)c(F)cc2c(=O)c(C(=O)O)cn(C3CC3)c12 (stereo not shown) [Gatifloxacin] |  |  |  |  |  | MIC [6]: MIC = 0.03-1.56 μg/mL H37Rv TB; MIC [7]: MIC = 3.12 μg/mL MDR-TB
3 | NNC(=O)c1ccncc1 [INH, Isoniazid, reference compound] |  |  |  |  |  | MIC90 ([1]; Mycobacteroides chelonae): > 500 µM; MIC90 ([2]; Mycobacterium marinum): > 500 µM; MIC90 ([3]; Mycobacterium avium): > 500 µM; MIC90 ([4]; Mycobacterium kansasii): 5.82 µM (≈ 0.798 µg/mL); MIC90 [5, 15]: < 1.95 µM
4 | Cc1c(CN2CCN(c3cccc(C(F)(F)F)c3)CC2)cc(-c2ccccc2)n1NC(=O)c1ccncc1 [LL-3858] |  |  |  |  |  | MIC [8]: MIC = 0.06 μg/mL
5 | Cc1ccn2c(C(=O)NCc3ccccc3)c(C)nc2c1 [ND-8454, N-benzyl-2,7-dimethylimidazo[1,2-a]pyridine-3-carboxamide] |  |  |  |  |  | MIC [9]: 0.08 µg/mL and 0.286 µM; MIC [10]: 0.02 µg/mL (≈ 0.0716 µM); IC50 [11]: > 128 µM; toxicity to HeLa cells [12]: > 50 µM; MIC90 [13]: ≥ 5 µg/mL; MIC90 ([1]; Mycobacteroides chelonae): > 50 µM; MIC90 ([2]; Mycobacterium marinum): > 50 µM; MIC90 ([3]; Mycobacterium avium): 1.32 µM (≈ 0.369 µg/mL); MIC90 ([4]; Mycobacterium kansasii): 1.32 µM (≈ 0.369 µg/mL); MIC90 [5, 15]: 0.33 µM (≈ 0.0922 µg/mL); activity against control organisms [14]: inactive
6 | Cc1ccn2c(C(=O)NCc3cccc(F)c3)c(C)nc2c1 [ND-9361] |  |  |  |  |  | MIC90 [13]: ≥ 5 µg/mL
7 | Cc1ccn2c(C(=O)NCc3ccc(Oc4ccc(F)cc4)cc3)c(C)nc2c1 [ND-9758] | 6.07 (≈ 2.36 µg/mL) | 5.21 (≈ 2.03 µg/mL) | <0.195 | <0.195 | <0.195 | 
8 | Cc1ccn2c(C(=O)NCc3cccc(OC(C)C)c3)c(C)nc2c1 [ND-9872] | >50 | >50 | 0.71 (≈ 0.24 µg/mL) | 0.71 (≈ 0.24 µg/mL) | <0.195 | 
9 | Cc1ccn2c(C(=O)NCc3ncc(C(F)(F)F)cc3Cl)c(C)nc2c1 [ND-9902] | >50 | >50 | 4.42 (≈ 1.69 µg/mL) | 4.42 (≈ 1.69 µg/mL) | 0.75 (≈ 0.287 µg/mL) | 
10 | Cc1ccc2nc(C)c(C(=O)NCc3ccc(S(C)(=O)=O)cc3)n2c1 [ND-9965] | >50 | >50 | 6.03 (≈ 2.16 µg/mL) | 6.03 (≈ 2.16 µg/mL) | 0.23 (≈ 0.0822 µg/mL) | 
11 | C[C@]1(COc2ccc(N3CCC(Oc4ccc(OC(F)(F)F)cc4)CC3)cc2)Cn2cc([N+](=O)[O-])nc2O1 [OPC-67683] |  |  |  |  |  | MIC [6]: MIC of 0.006-0.024 μg/mL; MIC [7]: MIC of 0.006-0.024 μg/mL
12 | COc1nc2ccc(Br)cc2cc1[C@@H](c1ccccc1)[C@@](O)(CCN(C)C)c1cccc2ccccc12 [TMC207] |  |  |  |  |  | MIC [6]: MIC = 0.06 μg/mL vs. H37Rv and MDR-TB; MIC [7]: MIC = 0.06 μg/mL vs. H37Rv and MDR-TB
